How the values were obtained:
surinam grass = assay: Test C postemergence surinam grass; format: in vivo, Brachiaria decumbens; settings: 0 to 100 scale, 0 no effect, 100 complete control
Outline: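 Compounds in a non-phytotoxic solvent mixture with surfactant were sprayed postemergence on greenhouse-grown plants sized for treatment, in 60:40 sandy loam soil:potting mix. After about 14 to 21 days, injury was rated visually against untreated controls on a 0–100 scale (0 no effect, 100 complete control).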

Russian thistle [1] = assay: Test E Russian thistle; format: in vivo, Salsola kali; settings: Postemergence; for Plant response rating, Russian thistle: 0 to 100 scale
Procedure: […] A mixture of sandy loam soil and greenhouse potting mix in a 60:40 ratio was used for the postemergence test.
(§1) Plantings of these crops and weed species were adjusted to produce plants of appropriate size for the postemergence test. All plant species were grown using normal greenhouse practices. Crop and weed species include annual bluegrass (Poa annua), blackgrass (Alopecurus myosuroides), black nightshade (Solanum nigra), chickweed (Stellaria media), common poppy (Papaver rhoeas), deadnettle (Lamium amplexicaule), downy brome (Bromus tectorum), field violet (Viola arvensis), galium (Galium aparine), green foxtail (Setaria viridis), Italian ryegrass (Lolium multiflorum), jointed goatgrass (Aegilops cylindrica), kochia (Kochia scoparia), lambsquarters (Chenopodium album), littleseed canarygrass (Phalaris minor), rape (Brassica napus), redroot pigweed (Amaranthus retroflexus), Russian thistle (Salsola kali), scentless chamomile (Matricaria inodora), spring barley (Hordeum vulgare), sugar beet (Beta vulgaris), sunflower (Helianthus annuus), ivyleaf speedwell (Veronica hederaefolia), spring wheat (Triticum aestivum), winter wheat (Triticum aestivum), wild buckwheat (Polygonum convolvulus), wild mustard (Sinapis arvensis), wild oat (Avena fatua), windgrass (Apera spica-venti) and winter barley (Hordeum vulgare).
(§2) Treated plants and untreated controls were maintained in a greenhouse for approximately 21 to 28 days, after which all treated plants were compared to untreated controls and visually evaluated. […] A dash response (-) means no test result.

wild oat = assay: Test E wild oat; format: in vivo, Avena fatua; settings: Postemergence; for Plant response rating, Wild oat: 0 to 100 scale
Procedure: (§3) Compounds evaluated in this test were formulated in a non-phytotoxic solvent mixture which included a surfactant and applied to plants that were in the 1- to 4-leaf stage (postemergence application). A mixture of sandy loam soil and greenhouse potting mix in a 60:40 ratio was used for the postemergence test.
as §1, §2

redroot pigweed = assay: Test E redroot pigweed; format: in vivo, Amaranthus retroflexus; settings: Postemergence; for Plant response rating, Redroot pigweed: 0 to 100 scale
Procedure: as §3, §1, §2

lambsquarters [2] = assay: Test E lambsquarters; format: in vivo, Chenopodium album; settings: Preemergence
sunflower [3] = assay: Test E sunflower; format: in vivo, Helianthus annuus; settings: Postemergence; for Plant response rating, Sunflower: 0 to 100 scale
Procedure: as §1, with “Plantings of these crops and weed species were adjusted to produce plants of appropriate size for the postemergence test.” left out
as §2

downy brome = assay: Test E downy brome; format: in vivo, Bromus tectorum; settings: Preemergence
spring barley = assay: Test E spring barley; format: in vivo, Hordeum vulgare; settings: Postemergence; for Plant response rating, Spring Barley: 0 to 100 scale
Outline: (§4)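 Visually scored herbicidal effect relative to untreated plants, taken ~21 to 28 days post-application; compound in solvent with surfactant; postemergence sprays at the 1- to 4-leaf stage.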

field violet = assay: Test E field violet; format: in vivo, Viola arvensis; settings: Postemergence; for Plant response rating, Field violet: 0 to 100 scale
Procedure: as §3, §1, §2

ivyleaf speedwell = assay: Test E postemergence ivyleaf speedwell; format: in vivo, Veronica hederaefolia; settings: for Plant response rating, Veronica hedera: 0 to 100 scale
Procedure: as §3, §1, §2

sugar beet = assay: Test E sugar beet; format: in vivo, Beta vulgaris; settings: Preemergence
blackgrass = assay: Test E blackgrass; format: in vivo, Alopecurus myosuroides; settings: Postemergence; for Plant response rating, Blackgrass: 0 to 100 scale
Outline: as §4

Russian thistle [4] = assay: Test E Russian thistle; format: in vivo, Salsola kali; settings: Preemergence
annual bluegrass = assay: Test E annual bluegrass; format: in vivo, Poa annua; settings: Preemergence
littleseed canarygrass = assay: Test E littleseed canarygrass; format: in vivo, Phalaris minor; settings: Postemergence; for Plant response rating, LS canarygrass: 0 to 100 scale
Procedure: as §3, §1, §2

lambsquarters [5] = assay: Test E lambsquarters; format: in vivo, Chenopodium album; settings: Postemergence; for Plant response rating, Lambsquarters: 0 to 100 scale
Procedure: as §3, §1, §2

wild mustard = assay: Test E wild mustard; format: in vivo, Sinapis arvensis; settings: Preemergence
sunflower [6] = assay: Test E sunflower; format: in vivo, Helianthus annuus; settings: Preemergence
deadnettle = assay: Test E deadnettle; format: in vivo, Lamium amplexicaule; settings: Postemergence; for Plant response rating, Deadnettle: 0 to 100 scale
Procedure: as §3, §1, §2

[7] = Rate 500 g/ha, 0 no effect, 100 complete control
[8] = Rate 250 g/ha, 0 to 100 scale where 0 is no effect and 100 is complete control
[9] = Rate 125 g/ha, 0 to 100 scale (0 no effect, 100 complete control)
[10] = Rate 500 g/ha, 0 to 100 scale where 0 is no effect and 100 is complete control

**Q.** `CCn1c(=O)on(C(=O)N(c2ccccc2)C(C)C)c1=O` [Compound 117] was tested. Which “Plant response rating, Surinam grass” value (surinam grass; Rate 140 g/ha) did it give?
**A.** 0

**Q.** What about the “Plant response rating, Surinam grass” value (surinam grass; Rate 280 g/ha) of the same compound?
**A.** 0

**Q.** And the “Plant response rating, Surinam grass” value (surinam grass; Rate 560 g/ha)?
**A.** 40

**Q.** And the “Plant response rating, Surinam grass” value (surinam grass; Rate 1120 g/ha)?
**A.** 90

**Q.** What does the source list for `CC(C)N(C(=O)n1oc(=O)n(C(C)C)c1=O)c1ccc(F)cc1` [Compound 131]?
**A.** Plant response rating, Russian thistle (Russian thistle [1]; Rate 62 g/ha): 10; Plant response rating, Russian thistle (Russian thistle [1]; Rate 125 g/ha): 0; Plant response rating, Russian thistle (Russian thistle [1]; [7]): 0; Russian thistle plant response rating (Russian thistle [1]; [8]): 0; Plant response rating, Wild oat (wild oat; Rate 62 g/ha): 40; Plant response rating, Wild oat (wild oat; Rate 125 g/ha): 0; Plant response rating, Wild oat (wild oat; [7]): 70; Wild oat plant response rating (wild oat; [8]): 20; Plant response rating, Redroot pigweed (redroot pigweed; Rate 62 g/ha): 5; Plant response rating, Redroot pigweed (redroot pigweed; Rate 125 g/ha): 0; Plant response rating, Redroot pigweed (redroot pigweed; [7]): 0; Redroot pigweed plant response rating (redroot pigweed; [8]): 0; Plant response rating, Lambsquarters (lambsquarters [2]; [9]): 100; Lambsquarters plant response rating (0 to 100 scale) (lambsquarters [2]; Rate 250 g/ha): 100; Plant response rating, Lambsquarters (lambsquarters [2]; [10]): 100; Plant response rating, Sunflower (sunflower [3]; Rate 62 g/ha): 10; Plant response rating, Sunflower (sunflower [3]; Rate 125 g/ha): 0; Plant response rating, Sunflower (sunflower [3]; [7]): 0; Sunflower plant response rating (sunflower [3]; [8]): 0; Plant response rating, Downy brome (downy brome; [9]): 85; Downy brome plant response rating (0 to 100 scale) (downy brome; Rate 250 g/ha): 80; Plant response rating, Downy brome (downy brome; [10]): 100; Plant response rating, Spring Barley (spring barley; Rate 62 g/ha): 5; Plant response rating, Spring Barley (spring barley; Rate 125 g/ha): 0; Plant response rating, Spring Barley (spring barley; [7]): 20; Spring Barley plant response rating (spring barley; [8]): 0; Plant response rating, Field violet (field violet; Rate 62 g/ha): 60; Plant response rating, Field violet (field violet; Rate 125 g/ha): 0; Plant response rating, Field violet (field violet; [7]): 0; Field violet plant response rating (field violet; [8]): 0; Plant response rating, Veronica hedera (ivyleaf speedwell; Rate 125 g/ha): 0; Veronica hedera plant response rating (ivyleaf speedwell; [8]): 0; Plant response rating, Veronica hedera (ivyleaf speedwell; [7]): 20; Plant response rating, Sugar beet (sugar beet; [9]): 80; Sugar beet plant response rating (0 to 100 scale) (sugar beet; Rate 250 g/ha): 60; Plant response rating, Sugar beet (sugar beet; [10]): 90; Plant response rating, Blackgrass (blackgrass; Rate 62 g/ha): 85; Plant response rating, Blackgrass (blackgrass; Rate 125 g/ha): 20; Plant response rating, Blackgrass (blackgrass; [7]): 75; Blackgrass plant response rating (blackgrass; [8]): 60; Plant response rating, Russian thistle (Russian thistle [4]; [9]): 10; Russian thistle plant response rating (0 to 100 scale) (Russian thistle [4]; Rate 250 g/ha): 0; Plant response rating, Russian thistle (Russian thistle [4]; [10]): 0; Plant response rating, Annual bluegras (annual bluegrass; [9]): 70; Annual bluegras plant response rating (0 to 100 scale) (annual bluegrass; Rate 250 g/ha): 80; Plant response rating, Annual bluegras (annual bluegrass; [10]): 100; Plant response rating, LS canarygrass (littleseed canarygrass; Rate 62 g/ha): 50; Plant response rating, LS canarygrass (littleseed canarygrass; Rate 125 g/ha): 0; Plant response rating, LS canarygrass (littleseed canarygrass; [7]): 50; LS canarygrass plant response rating (littleseed canarygrass; [8]): 20; Plant response rating, Lambsquarters (lambsquarters [5]; Rate 62 g/ha): 0; Plant response rating, Lambsquarters (lambsquarters [5]; Rate 125 g/ha): 0; Plant response rating, Lambsquarters (lambsquarters [5]; [7]): 0; Lambsquarters plant response rating (lambsquarters [5]; [8]): 0; Plant response rating, Surinam grass (surinam grass; Rate 140 g/ha): 0; Plant response rating, Surinam grass (surinam grass; Rate 280 g/ha): 80; Plant response rating, Surinam grass (surinam grass; Rate 560 g/ha): 85; Plant response rating, Surinam grass (surinam grass; Rate 1120 g/ha): 90; Plant response rating, Wild mustard (wild mustard; [9]): 60; Wild mustard plant response rating (0 to 100 scale) (wild mustard; Rate 250 g/ha): 100; Plant response rating, Wild mustard (wild mustard; [10]): 100; Plant response rating, Sunflower (sunflower [6]; [9]): 20; Sunflower plant response rating (0 to 100 scale) (sunflower [6]; Rate 250 g/ha): 20; Plant response rating, Sunflower (sunflower [6]; [10]): 20; Plant response rating, Deadnettle (deadnettle; Rate 62 g/ha): 30; Plant response rating, Deadnettle (deadnettle; Rate 125 g/ha): 30; Plant response rating, Deadnettle (deadnettle; [7]): 50; Deadnettle plant response rating (deadnettle; [8]): 30
